# Results as given in ChEMBL document CHEMBL1250530, “Identification of organoselenium compounds that possess chemopreventive properties in human prostate cancer LNCaP cells” (Bioorg Med Chem, 2010).
# Calls of active or inactive are those of the source. The rule behind the calls is not given here.
# How the values were obtained:
# [1] = biological target: T1, Nuclear factor erythroid 2-related factor 2 (Homo sapiens) (UniProt Q16236); assay: Induction of NRF2-mediated ARE enhancer activity in hormone-sensitive human LNCaP cells transfected with pGL3-ARE-TK-luc at 5 uM after 24 hrs by luciferase assay relative to control; format: functional, cell-based
# T1 sequence (whole entry): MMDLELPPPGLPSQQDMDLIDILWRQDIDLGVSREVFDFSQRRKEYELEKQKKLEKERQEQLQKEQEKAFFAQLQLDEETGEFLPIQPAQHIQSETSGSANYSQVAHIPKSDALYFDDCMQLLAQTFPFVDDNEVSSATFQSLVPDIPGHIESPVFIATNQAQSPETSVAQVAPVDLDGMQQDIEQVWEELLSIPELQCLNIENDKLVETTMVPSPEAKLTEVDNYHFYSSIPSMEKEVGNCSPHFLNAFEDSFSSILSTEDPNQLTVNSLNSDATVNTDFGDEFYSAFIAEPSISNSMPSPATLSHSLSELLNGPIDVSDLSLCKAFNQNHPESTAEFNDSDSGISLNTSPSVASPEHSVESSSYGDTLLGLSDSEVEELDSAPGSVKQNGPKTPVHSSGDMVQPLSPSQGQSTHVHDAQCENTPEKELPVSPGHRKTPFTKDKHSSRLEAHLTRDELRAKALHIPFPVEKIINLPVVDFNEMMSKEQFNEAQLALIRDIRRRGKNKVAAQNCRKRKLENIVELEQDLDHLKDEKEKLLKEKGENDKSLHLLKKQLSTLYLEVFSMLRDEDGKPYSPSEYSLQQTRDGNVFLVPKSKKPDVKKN
# [2] = biological target: T1, Nuclear factor erythroid 2-related factor 2 (Homo sapiens); assay: Induction of NRF2-mediated ARE enhancer activity in hormone-refractory human PC3 cells transfected with pGL3-ARE-TK-luc at 5 uM after 24 hrs by luciferase assay relative to control; format: functional, cell-based; details: PC-3
# [3] = biological target: T1, Nuclear factor erythroid 2-related factor 2 (Homo sapiens); assay: Induction of NRF2-mediated ARE enhancer activity in hormone-refractory human DU145 cells transfected with pGL3-ARE-TK-luc at 5 uM after 24 hrs by luciferase assay relative to control; format: functional, cell-based; details: DU-145
# [4] = biological target: T1, Nuclear factor erythroid 2-related factor 2 (Homo sapiens); assay: Increase of NRF2-mediated HO-1 expression in human LNCaP cells at 5 uM after 24 hrs by Western blotting; format: functional, cell-based
# [5] = biological target: T1, Nuclear factor erythroid 2-related factor 2 (Homo sapiens); assay: Increase of NRF2-mediated HO-1 expression in hormone-refractory human PC3 cells at 5 uM after 24 hrs by Western blotting; format: functional, cell-based; details: PC-3
# [6] = biological target: T1, Nuclear factor erythroid 2-related factor 2 (Homo sapiens); assay: Increase of NRF2-mediated HO-1 expression in hormone-refractory human DU145 cells at 5 uM after 24 hrs by Western blotting; format: functional, cell-based; details: DU-145
# [7] = biological target: T1, Nuclear factor erythroid 2-related factor 2 (Homo sapiens); assay: Increase of NRF2-mediated HO-1 expression in human LNCaP cells after 24 hrs by Western blotting; format: functional, cell-based
# [8] = biological target: T1, Nuclear factor erythroid 2-related factor 2 (Homo sapiens); assay: Increase of NRF2-mediated HO-1 expression in human LNCaP cells at 5 uM by Western blotting; format: functional, cell-based; details: TDE = time-dependent effect
# [9] = biological target: T1, Nuclear factor erythroid 2-related factor 2 (Homo sapiens); assay: Induction of nuclear translocation of NRF2 in human LNCaP cells at 5 uM after 0.5 hrs by Western blotting; format: functional, cell-based
# [10] = biological target: T1, Nuclear factor erythroid 2-related factor 2 (Homo sapiens); assay: Induction of nuclear translocation of NRF2 in human LNCaP cells at 5 uM after 6 hrs by Western blotting; format: functional, cell-based
# [11] = system: LNCaP; assay: Induction of NRF2 dominant-negative mutant-mediated ARE enhancer activity in human LNCaP cells transfected with pGL3-ARE-TK-luc at 5 uM after 24 hrs by luciferase assay relative to control; format: cell-based
# [12] = system: LNCaP; assay: Antioxidant activity in human LNCAP cells assessed as decrease in intracellular ROS level at 5 uM after 5 mins by fluorescence microplate reader assay; format: functional, cell-based
# [13] = system: LNCaP; assay: Antioxidant activity in human LNCAP cells assessed as decrease in intracellular ROS level at 5 uM after 1 hr by fluorescence microplate reader assay; format: functional, cell-based
# [14] = system: LNCaP; assay: Antioxidant activity in human LNCAP cells assessed as decrease in intracellular ROS level at 5 uM after 12 hrs by fluorescence microplate reader assay; format: functional, cell-based
# [15] = system: LNCaP; assay: Induction of morphological changes in human LNCAP cells assessed as appearance of flattened and enlarged cells at 5 uM after 24 to 48 hrs; format: functional, cell-based
# [16] = system: LNCaP; assay: Cytotoxicity against human LNCAP cells assessed as reduction of cells count at 5 uM after 24 to 48 hrs by trypan blue dye exclusion assay; format: functional, cell-based
# [17] = system: LNCaP; assay: Induction of apoptosis in human LNCAP cells at 5 uM by Hoechst 33342 staining; format: functional, cell-based
# [18] = system: LNCaP; assay: Decrease in cyclin B1 expression in human LNCAP cells at 5 uM after 48 hrs by Western blotting; format: functional, cell-based
# [19] = system: LNCaP; assay: Decrease in cyclin D1 expression in human LNCAP cells at 5 uM after 48 hrs by Western blotting; format: functional, cell-based
# [20] = system: LNCaP; assay: Effect on p21 expression in human LNCAP cells at 5 uM after 48 hrs by Western blotting; format: functional, cell-based
# [21] = system: LNCaP; assay: Growth inhibition of human LNCAP cells at 5 uM after 48 hrs by trypan blue dye exclusion assay in presence of 5 uM HO-1 inhibitor Zn-protoporphyrin; format: functional, cell-based
# [22] = system: LNCaP; assay: Growth inhibition of human LNCAP cells transfected with HO-1 siRNA at 5 uM after 72 hrs by trypan blue dye exclusion assay; format: functional, cell-based
# [23] = biological target: T1, Nuclear factor erythroid 2-related factor 2 (Homo sapiens); assay: Increase of NRF2-mediated HO-1 expression in hormone-refractory human MCF7 cells after 24 hrs by Western blotting; format: functional, cell-based
# [24] = biological target: T1, Nuclear factor erythroid 2-related factor 2 (Homo sapiens); assay: Increase of NRF2-mediated HO-1 expression in hormone-refractory human MDA-MB-231 cells after 24 hrs by Western blotting; format: functional, cell-based
# [25] = biological target: T1, Nuclear factor erythroid 2-related factor 2 (Homo sapiens); assay: Increase of NRF2-mediated NQO-1 expression in human LNCaP cells at 5 uM after 24 hrs by Western blotting; format: functional, cell-based
# [26] = biological target: T1, Nuclear factor erythroid 2-related factor 2 (Homo sapiens); assay: Increase of NRF2-mediated NQO-1 expression in hormone-refractory human PC3 cells at 5 uM after 24 hrs by Western blotting; format: functional, cell-based; details: PC-3
# [27] = biological target: T1, Nuclear factor erythroid 2-related factor 2 (Homo sapiens); assay: Increase of NRF2-mediated NQO-1 expression in hormone-refractory human DU145 cells at 5 uM after 24 hrs by Western blotting; format: functional, cell-based; details: DU-145
# [28] = biological target: RAC-alpha serine/threonine-protein kinase (Homo sapiens) (UniProt P31749); assay: Effect on c-Akt phosphorylation in human LNCAP cells; format: cell-based
# Chain of RAC-alpha serine/threonine-protein kinase (Homo sapiens) (P31749 whole entry): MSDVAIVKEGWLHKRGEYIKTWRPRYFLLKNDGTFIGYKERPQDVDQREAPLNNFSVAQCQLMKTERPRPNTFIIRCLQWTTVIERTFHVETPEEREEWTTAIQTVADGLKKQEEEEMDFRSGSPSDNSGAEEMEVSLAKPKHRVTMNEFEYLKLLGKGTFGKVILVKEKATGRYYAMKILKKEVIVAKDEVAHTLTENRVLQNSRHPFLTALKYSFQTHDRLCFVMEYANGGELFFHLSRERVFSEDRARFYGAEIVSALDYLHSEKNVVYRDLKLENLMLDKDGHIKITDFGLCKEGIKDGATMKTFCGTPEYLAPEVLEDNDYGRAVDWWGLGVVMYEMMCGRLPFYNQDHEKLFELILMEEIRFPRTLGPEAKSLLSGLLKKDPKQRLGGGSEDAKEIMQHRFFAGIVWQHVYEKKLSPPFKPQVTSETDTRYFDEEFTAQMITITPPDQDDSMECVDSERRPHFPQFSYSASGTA
# [29] = system: LNCaP; assay: Effect on ERK phosphorylation in human LNCAP cells; format: cell-based
# [30] = biological target: c-Jun N-terminal kinase, JNK (Homo sapiens) (UniProt P45983+P53779+P45984); assay: Effect on JNK phosphorylation in human LNCAP cells; format: cell-based
# [31] = biological target: MAP kinase p38 (Homo sapiens) (UniProt O15264+Q15759+Q16539+P53778); assay: Effect on p38 phosphorylation in human LNCAP cells; format: cell-based
# [32] = biological target: T1, Nuclear factor erythroid 2-related factor 2 (Homo sapiens); assay: Induction of nuclear translocation of NRF2 in human LNCaP cells at 5 uM after 1 hr by Western blotting; format: functional, cell-based
Activity [1],fold change (FC) [1],fold change (FC) [2],fold change (FC) [3],Activity [4],Activity [5],Activity [6],Activity [7],Activity [8],Activity [10],Structure (SMILES),Activity [11],inhibition [12],inhibition [13],inhibition [14],Activity [15],Activity [16],Activity [17],inhibition [18],inhibition [19],Activity [20],other results
Active,–,–,–,–,–,–,–,–,–,C[C@@H](O[Si](C)(C)C(C)(C)C)[C@H]1C(=O)N2/C(=N/c3ccccc3)[Se]/C(=C/I)C[C@H]12,–,–,–,–,–,–,–,–,–,–,–
–,6,< 2,< 2,Active,Active,Active,Dose-dependent effect,tde,Active,C[C@@H](O[Si](C)(C)C(C)(C)C)[C@H]1C(=O)N2/C(=N/Cc3ccccc3)[Se]/C(=C/I)C[C@H]12,inactive,Active,Active,Active,Active,Active,inactive,Active,Active,inactive,Activity [9]: Active; growth inhibition (GI) [21]: Active; growth inhibition (GI) [22]: Active; Activity [23]: Active; Activity [24]: Active; Activity [25]: Active; Activity [26]: Active; Activity [27]: Active; Activity [28]: inactive; Activity [29]: inactive; Activity [30]: inactive; Activity [31]: inactive
–,6,< 2,< 2,Active,Active,Active,Dose-dependent effect,tde,Active,C[C@@H](O[Si](C)(C)C(C)(C)C)[C@H]1C(=O)N2/C(=N/C3CCCCC3)[Se]/C(=C/I)C[C@H]12,inactive,Active,Active,Active,Active,Active,inactive,Active,Active,inactive,Activity [32]: Active; growth inhibition (GI) [21]: Active; growth inhibition (GI) [22]: Active; Activity [23]: Active; Activity [24]: Active; Activity [25]: Active; Activity [26]: Active; Activity [27]: Active; Activity [28]: inactive; Activity [29]: inactive; Activity [30]: inactive; Activity [31]: inactive
Active,–,–,–,–,–,–,–,–,–,C[C@@H](O[Si](C)(C)C(C)(C)C)[C@H]1C(=O)N2/C(=N/c3ccc4ccccc4c3)[Se]/C(=C/I)C[C@H]12,–,–,–,–,–,–,–,–,–,–,–
